Laboratory results as given in ChEMBL document CHEMBL3045173, “Synthesis, antibacterial, and antitubercular studies of some novel isatin derivatives” (2012).
≈ marks a conversion by molar mass, not a printed value.

Assays:
Format in all cases: functional
Micrococcus luteus [1] = test: Antimicrobial activity against Micrococcus luteus ATCC 4698 at 100 ug/ml after 24 hr by paper disk diffusion method; details: ATCC 4698, 24 h, read-out: IZ
[2] = test system: Staphylococcus epidermidis; test: Antimicrobial activity against Staphylococcus epidermidis ATCC 155 after 24 hr by agar streak dilution method; details: ATCC 155, 24 h
[3] = test system: Staphylococcus epidermidis; test: Antimicrobial activity against Staphylococcus epidermidis ATCC 155 at 100 ug/ml after 24 hr by paper disk diffusion method; details: ATCC 155, 24 h, read-out: IZ
[4] = test system: Mycobacterium tuberculosis; test: Antimicrobial activity against Mycobacterium tuberculosis H37Rv ATCC 27294 after 7 days by MABA; details: for MIC90: Mycobacterium tuberculosis, H37Rv ATCC 27294, 168 h
Bacillus cereus [5] = test: Antimicrobial activity against Bacillus cereus ATCC 11778 at 100 ug/ml after 24 hr by paper disk diffusion method; details: ATCC 11778, 24 h, read-out: IZ
Staphylococcus aureus [6] = test: Antimicrobial activity against Staphylococcus aureus ATCC 9144 after 24 hr by agar streak dilution method; details: ATCC 9144, 24 h
Staphylococcus aureus [7] = test: Antimicrobial activity against Staphylococcus aureus ATCC 9144 at 100 ug/ml after 24 hr by paper disk diffusion method; details: ATCC 9144, 24 h, read-out: IZ
Micrococcus luteus [8] = test: Antimicrobial activity against Micrococcus luteus ATCC 4698 after 24 hr by agar streak dilution method; details: ATCC 4698, 24 h
Bacillus cereus [9] = test: Antimicrobial activity against Bacillus cereus ATCC 11778 after 24 hr by agar streak dilution method; details: ATCC 11778, 24 h

O=C1/C(=N\c2ccc(/N=C/c3ccc([N+](=O)[O-])cc3)cc2)c2ccccc2N1Cc1ccccc1
zone of inhibition at 100 µg/mL (Micrococcus luteus [1]): 13 mm | MIC [2]: 20.4 µg/mL (≈ 44.3 µM) | zone of inhibition at 100 µg/mL [3]: 19 mm | inhibition (INH) [4]: 80% | zone of inhibition at 100 µg/mL (Bacillus cereus [5]): 16 mm | MIC (Staphylococcus aureus [6]): 25.2 µg/mL (≈ 54.7 µM) | zone of inhibition at 100 µg/mL (Staphylococcus aureus [7]): 15 mm | MIC (Micrococcus luteus [8]): 27.8 µg/mL (≈ 60.4 µM) | MIC (Bacillus cereus [9]): 19.2 µg/mL (≈ 41.7 µM)

O=C1/C(=N\c2ccc(/N=C/c3ccc(Br)cc3)cc2)c2ccccc2N1Cc1ccccc1
zone of inhibition at 100 µg/mL (Micrococcus luteus [1]): 20 mm | MIC [2]: 21.2 µg/mL (≈ 42.9 µM) | zone of inhibition at 100 µg/mL [3]: 18 mm | inhibition (INH) [4]: 96% | MIC90 [4]: 4.26 µM (≈ 2.11 µg/mL) | zone of inhibition at 100 µg/mL (Bacillus cereus [5]): 17 mm | MIC (Staphylococcus aureus [6]): 19.3 µg/mL (≈ 39 µM) | zone of inhibition at 100 µg/mL (Staphylococcus aureus [7]): 19 mm | MIC (Micrococcus luteus [8]): 16.3 µg/mL (≈ 33 µM) | MIC (Bacillus cereus [9]): 15.3 µg/mL (≈ 30.9 µM)

O=C1/C(=N\c2ccc(/N=C/c3ccc(Cl)cc3)cc2)c2ccccc2N1Cc1ccccc1
zone of inhibition at 100 µg/mL (Micrococcus luteus [1]): 23 mm | MIC [2]: 9.8 µg/mL (≈ 21.8 µM) | zone of inhibition at 100 µg/mL [3]: 25 mm | inhibition (INH) [4]: 90% | zone of inhibition at 100 µg/mL (Bacillus cereus [5]): 19 mm | MIC (Staphylococcus aureus [6]): 10.4 µg/mL (≈ 23.1 µM) | zone of inhibition at 100 µg/mL (Staphylococcus aureus [7]): 21 mm | MIC (Micrococcus luteus [8]): 11.2 µg/mL (≈ 24.9 µM) | MIC (Bacillus cereus [9]): 12.1 µg/mL (≈ 26.9 µM)

O=C1/C(=N\c2ccc(/N=C/c3ccccc3O)cc2)c2ccccc2N1Cc1ccccc1
zone of inhibition at 100 µg/mL (Micrococcus luteus [1]): 17 mm | MIC [2]: 17.6 µg/mL (≈ 40.8 µM) | zone of inhibition at 100 µg/mL [3]: 20 mm | inhibition (INH) [4]: 90% | zone of inhibition at 100 µg/mL (Bacillus cereus [5]): 18 mm | MIC (Staphylococcus aureus [6]): 13.2 µg/mL (≈ 30.6 µM) | zone of inhibition at 100 µg/mL (Staphylococcus aureus [7]): 20 mm | MIC (Micrococcus luteus [8]): 20.6 µg/mL (≈ 47.7 µM) | MIC (Bacillus cereus [9]): 16.7 µg/mL (≈ 38.7 µM)

COc1ccc(/C=N/c2ccc(/N=C3\C(=O)N(Cc4ccccc4)c4ccccc43)cc2)cc1
zone of inhibition at 100 µg/mL (Micrococcus luteus [1]): 20 mm | MIC [2]: 14.8 µg/mL (≈ 33.2 µM) | zone of inhibition at 100 µg/mL [3]: 23 mm | inhibition (INH) [4]: 80% | zone of inhibition at 100 µg/mL (Bacillus cereus [5]): 17 mm | MIC (Staphylococcus aureus [6]): 13.6 µg/mL (≈ 30.5 µM) | zone of inhibition at 100 µg/mL (Staphylococcus aureus [7]): 19 mm | MIC (Micrococcus luteus [8]): 12.4 µg/mL (≈ 27.8 µM) | MIC (Bacillus cereus [9]): 17.1 µg/mL (≈ 38.4 µM)

COc1ccc(/C=N/c2ccc(/N=C3\C(=O)N(Cc4ccccc4)c4ccccc43)cc2)cc1OC
zone of inhibition at 100 µg/mL (Micrococcus luteus [1]): 17 mm | MIC [2]: 20.2 µg/mL (≈ 42.5 µM) | zone of inhibition at 100 µg/mL [3]: 18 mm | inhibition (INH) [4]: 73% | zone of inhibition at 100 µg/mL (Bacillus cereus [5]): 16 mm | MIC (Staphylococcus aureus [6]): 11.8 µg/mL (≈ 24.8 µM) | zone of inhibition at 100 µg/mL (Staphylococcus aureus [7]): 22 mm | MIC (Micrococcus luteus [8]): 19.6 µg/mL (≈ 41.2 µM) | MIC (Bacillus cereus [9]): 21.2 µg/mL (≈ 44.6 µM)

COc1cc(/C=N/c2ccc(/N=C3\C(=O)N(Cc4ccccc4)c4ccccc43)cc2)ccc1O
zone of inhibition at 100 µg/mL (Micrococcus luteus [1]): 19 mm | MIC [2]: 13.8 µg/mL (≈ 29.9 µM) | zone of inhibition at 100 µg/mL [3]: 22 mm | inhibition (INH) [4]: 80% | zone of inhibition at 100 µg/mL (Bacillus cereus [5]): 17 mm | MIC (Staphylococcus aureus [6]): 18.2 µg/mL (≈ 39.4 µM) | zone of inhibition at 100 µg/mL (Staphylococcus aureus [7]): 19 mm | MIC (Micrococcus luteus [8]): 18.7 µg/mL (≈ 40.5 µM) | MIC (Bacillus cereus [9]): 18.6 µg/mL (≈ 40.3 µM)

CN(C)c1ccc(/C=N/c2ccc(/N=C3\C(=O)N(Cc4ccccc4)c4ccccc43)cc2)cc1
zone of inhibition at 100 µg/mL (Micrococcus luteus [1]): 18 mm | MIC [2]: 24 µg/mL (≈ 52.3 µM) | zone of inhibition at 100 µg/mL [3]: 14 mm | inhibition (INH) [4]: 79% | zone of inhibition at 100 µg/mL (Bacillus cereus [5]): 15 mm | MIC (Staphylococcus aureus [6]): 22.8 µg/mL (≈ 49.7 µM) | zone of inhibition at 100 µg/mL (Staphylococcus aureus [7]): 17 mm | MIC (Micrococcus luteus [8]): 19.7 µg/mL (≈ 43 µM) | MIC (Bacillus cereus [9]): 20.7 µg/mL (≈ 45.1 µM)

O=C(O)c1cn(C2CC2)c2cc(N3CCNCC3)c(F)cc2c1=O [CIPROFLOXACIN]
zone of inhibition at 100 µg/mL (Micrococcus luteus [1]): 30 mm | MIC [2]: 0.35 µg/mL (≈ 1.06 µM) | zone of inhibition at 100 µg/mL [3]: 29 mm | zone of inhibition at 100 µg/mL (Bacillus cereus [5]): 25 mm | MIC (Staphylococcus aureus [6]): 0.2 µg/mL (≈ 0.604 µM) | zone of inhibition at 100 µg/mL (Staphylococcus aureus [7]): 25 mm | MIC (Micrococcus luteus [8]): 0.1 µg/mL (≈ 0.302 µM) | MIC (Bacillus cereus [9]): 0.3 µg/mL (≈ 0.905 µM)

NNC(=O)c1ccncc1 [ISONIAZID]
inhibition (INH) [4]: 100% | MIC90 [4]: 0.74 µM (≈ 0.101 µg/mL)

COc1c(N2C[C@@H]3CCCN[C@@H]3C2)c(F)cc2c(=O)c(C(=O)O)cn(C3CC3)c12 [MOXIFLOXACIN]
inhibition (INH) [4]: 100% | MIC90 [4]: 0.25 µM (≈ 0.1 µg/mL)

O=[N+]([O-])c1cn2c(n1)OC[C@@H](OCc1ccc(OC(F)(F)F)cc1)C2 [PRETOMANID]
inhibition (INH) [4]: 100% | MIC90 [4]: 0.25 µM (≈ 0.0898 µg/mL)

CO[C@H]1/C=C/O[C@@]2(C)Oc3c(C)c(O)c4c(O)c(c(/C=N/N5CCN(C)CC5)c(O)c4c3C2=O)NC(=O)/C(C)=C\C=C\[C@H](C)[C@H](O)[C@@H](C)[C@@H](O)[C@@H](C)[C@H](OC(C)=O)[C@@H]1C [RIFAMPIN]
inhibition (INH) [4]: 100% | MIC90 [4]: 0.06 µM (≈ 0.0494 µg/mL)
